According to patent publication US5110927A (The United States of America as represented by the …, priority 1987, dated 1992):
Entries after “also recorded” stand apart in the source; their conditions may differ. Where two headings read alike, the source gives them in different places.

Experiments:
[1] = target: α1-adrenoceptor (3H-prazosin binding sites); assay: displacement of 3H-prazosin from rat cerebral cortical (brain) membranes; settings: for -logIC50: 3H-prazosin displacement, rat cerebral cortical membranes
Method: IC50 values and apparent Ki values were determined as in Table 1.
(§1) Rat brain cortices were homogenized in approximately 30 volumes/wet weight of 50 mM Tris buffer, pH 7.4, containing 10 mM MgCl2 by use of a Polytron (setting 6 for 10 seconds). It should be noted that this buffer was used throughout the experimental procedures. The homogenate was centrifuged at 48,000×g for 10 minutes in a Sorvall RC-5B centrifuge. The resulting pellet was resuspended in buffer by use of a Polytron and recentrifuged. This process was repeated and the pellet was resuspended in approximately 200 volumes for affinity studies or 20 volumes for irreversibility experiments.
Specific binding was defined as the difference between total binding (measured in the absence of any ligand) and non-specific binding (measured in the presence of 10 microM phentolamine). Duplicate tubes were used for each condition. Reaction tubes were incubated for 30 minutes at 30° C., then diluted to 5 ml with ice cold buffer, and filtered under reduced pressure through Whatman GF/C glass fiber filters. The reaction tubes and filters were washed three additional times with buffer.

[2] = tested on: α1-adrenoceptor (3H-prazosin binding sites); assay: irreversibility experiment: membranes preincubated with compound, washed, assayed for saturation of 3H-prazosin binding; set-up: species or system rat; settings: for irreversible blockade / effect on 3H-prazosin binding sites (in words): membranes, preincubation and washing
[3] = tested on: phenylephrine, alpha1-adrenergic pressor response; assay: diastolic blood pressure response to phenylephrine in anesthetized rats; type: in vivo, rat; settings: i.v., prazosin 0.11 mg/kg or compound 47 0.09 mg/kg, 15 min
Method: (§2) Male rats were anesthetized, cannulated, and treated with hexamethonium bromide to block ganglionic effect, and their basal response in blood pressure to pressor compounds was measured. […] After fifteen minutes, the response in blood pressure to pressor compounds was re-evaluated.

[4] = tested on: BHT 933, alpha2-adrenergic pressor response; assay: diastolic blood pressure response to BHT 933 in anesthetized rats; type: in vivo, rat; settings: i.v., prazosin 0.11 mg/kg or compound 47 0.09 mg/kg, 15 min
Method: as §2

[5] = tested on: hypertensive patients; normotensive and hypertensive animals; settings: human, in vivo; cited from earlier work
[6] = tested on: alpha1-adrenoceptors and other receptors; settings: prior art; cited from earlier work
[7] = target: T1, α1-adrenoceptor (3H-prazosin binding sites) (Rattus norvegicus, UniProt P15823); assay: irreversibility experiment: membranes preincubated with compound, washed, assayed for saturation of 3H-prazosin binding; settings: spleen membranes, FIG. 3; statistically insignificant
T1 construct: Rat brain cortices were homogenized; from tissue; host or cells: rat brain cortex membranes; for some results heart ventricle, kidney cortex and spleen membranes
T1 sequence (P15823 1-515): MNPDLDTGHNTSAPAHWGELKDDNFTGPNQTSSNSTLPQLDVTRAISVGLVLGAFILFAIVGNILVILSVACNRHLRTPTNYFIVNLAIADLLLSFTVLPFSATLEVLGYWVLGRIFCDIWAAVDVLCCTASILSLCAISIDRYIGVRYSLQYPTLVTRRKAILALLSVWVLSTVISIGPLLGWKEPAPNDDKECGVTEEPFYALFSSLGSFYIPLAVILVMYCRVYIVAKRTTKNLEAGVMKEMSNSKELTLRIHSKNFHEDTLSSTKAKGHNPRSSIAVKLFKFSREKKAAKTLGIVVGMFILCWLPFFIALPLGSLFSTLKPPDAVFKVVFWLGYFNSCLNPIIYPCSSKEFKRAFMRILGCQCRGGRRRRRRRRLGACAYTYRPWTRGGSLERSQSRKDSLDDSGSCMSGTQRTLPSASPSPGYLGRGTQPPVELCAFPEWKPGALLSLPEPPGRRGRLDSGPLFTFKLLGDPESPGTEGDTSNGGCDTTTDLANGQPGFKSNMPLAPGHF

[8] = target: alpha2-adrenoreceptors (3H-yohimbine binding sites); assay: displacement of 3H-yohimbine from rat brain membranes
Method: (§3) FIG. 1 - Affinity of compound No. 47 at adrenergic binding sites on brain membranes. Membranes from rat brain cortex were prepared and the displacement of either ^3 H-prazosin 0---0, ^3 H-yohimbine Δ---Δ or ^3 H-DHA --- by compound No. 47 was measured. IC50 values and apparent Ki values were determined as in Table 1. The data in the figure are from a representative experiment which was repeated. […] The results are the averages of two separate experiments.
as §1

[9] = target: T2, beta-adrenoceptors (3H-DHA binding sites) (Rattus norvegicus, UniProt P18090); assay: displacement of 3H-DHA from rat brain membranes
T2 construct: Membranes from rat brain cortex were prepared; from tissue; host or cells: rat brain cortex membranes
Method: as §3, §1

[10] = tested on: alpha2-adrenoceptors (3H-yohimbine binding sites); assay: irreversibility experiment: preincubation and washing of brain membranes, then 3H-yohimbine binding; set-up: species or system rat; settings: preincubated and washed
Method: (§4) FIG. 5 - In vitro blockage of adrenergic binding sites in rat brain membranes by compound No. b 47 Membranes were preincubated without 0---0, or with 0---0 1×10^-7 M of compound No. 47 and processed as described in the Methods. Membranes were assayed for ^3 -prazosin binding and either ^3 -DHA or ^3 -yohimbine binding. The data are the averages of two separate experiments.
(§5) Aliquots of a suspension of membranes (5 ml), prepared as described above, were incubated with either the addition of only buffer (control) or a solution of the tested compound at various concentrations ranging from 1×10^-10 to 1×10^-5 for about 60 minutes at about 30° C. The suspensions were then diluted to approximately 40 mL with buffer, and incubated a further 10 minutes on ice. The membranes were then washed by a series of four centrifugations and resuspensions before they were finally resuspended in approximately 50 mL buffer for assay of saturation of ^3 -prazosin binding.

[11] = tested on: beta-adrenoceptors (3H-DHA binding sites); assay: irreversibility experiment: preincubation and washing of brain membranes, then 3H-DHA binding; set-up: species or system rat; settings: preincubated and washed
Method: as §4, §5

[12] = tested on: α1-adrenoceptor (3H-prazosin binding sites); assay: intact animal study: intraperitoneal injection, membranes prepared 16 hours later and assayed for saturation of 3H-prazosin binding; type: in vivo, rat
Method: Sixteen hours later, the animals were sacrificed, membranes were prepared from various tissues, and assayed for saturation of ^3 -prazosin binding.
To test its efficacy in vivo. compound No. 47 was injected intraperitoneally at a dose of 10 mg/kg into rats. In membranes prepared from brains and hearts of animals 16 hours after injection of compound 47, a 32-44% decrease in Bmax was noted, compared to animals injected with vehicle only. […]

[13] = tested on: norepinephrine-induced contraction of aorta rings; assay: contraction of rabbit aorta rings caused by norepinephrine; settings: 10^-6 M, thirty minutes exposure
Method: Rings from aortas of rabbits were prepared using standard procedures, the rings were characterized, and the effects of compound 47 on contraction caused by norepinephrine were characterized.

[14] = tested on: catecholamine-activated efflux of calcium ions, rat parotid cells; assay: calcium efflux activated by catecholamines in dispersed parotid cells; type: cell-based
[15] = tested on: cholinergic (muscarinic) activated efflux of calcium ions, rat parotid cells; assay: calcium efflux activated by cholinergic (muscarinic) system in dispersed parotid cells; type: cell-based

T2 sequence (P18090 whole entry): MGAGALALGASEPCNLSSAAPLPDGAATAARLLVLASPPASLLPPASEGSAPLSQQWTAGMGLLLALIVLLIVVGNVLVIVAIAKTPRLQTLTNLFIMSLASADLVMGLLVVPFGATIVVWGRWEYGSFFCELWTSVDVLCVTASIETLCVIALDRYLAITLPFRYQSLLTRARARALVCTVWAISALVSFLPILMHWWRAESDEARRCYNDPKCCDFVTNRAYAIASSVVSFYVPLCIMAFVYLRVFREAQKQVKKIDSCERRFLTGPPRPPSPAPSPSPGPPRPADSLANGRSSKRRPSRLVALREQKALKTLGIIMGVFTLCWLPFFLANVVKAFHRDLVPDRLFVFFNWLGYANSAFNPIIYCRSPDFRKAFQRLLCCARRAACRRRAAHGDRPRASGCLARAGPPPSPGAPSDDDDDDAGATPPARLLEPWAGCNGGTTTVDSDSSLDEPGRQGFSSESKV

Structure (SMILES): COc1cc2nc(N3CCN(C(=O)c4ccco4)CC3)nc(N)c2cc1OC [Compound 1, 2-(4-(2-furoyl)-piperazine-1-yl)-4-amino-6,7-dimethoxy-quinazoline, reference compound]
- -logIC50 [1]: 9.79
- irreversible blockade / effect on 3H-prazosin binding sites (in words) ([2]; listed as Prazosin): prevented the decrease in binding sites caused by compound 47 alone; also recorded: had no effect on ^3 -prazosin binding
- irreversible blockade / effect on 3H-prazosin binding sites (in words) ([2]; listed as prazosin): Washing the prazosin from the membranes restored the number of alpha1 -adrenoceptors
- effect on blood pressure response to phenylephrine [3]: a higher concentration of pressor compounds was required to obtain increases in blood pressure
- effect on blood pressure response to BHT 933 [4]: a higher concentration of pressor compounds was required to obtain increases in blood pressure
- lowering of blood pressure [5]: lower blood pressure in hypertensive patients and in normotensive and hypertensive animals
- receptor specificity (in words) [6]: preferential affinity for postysynaptic alpha1 -adrenoreceptors

Structure (SMILES): COc1cc2nc(N3CCN(C(=O)C4=CC5C=CC4CC5)CC3)nc(N)c2cc1OC (stereo not drawn) [Compound 47, 4-amino-2(4-bicyclo[2.2.2]octa-2,5-diene-2-carboxypiperazin-1-yl)-6,7-dimethoxyquinazoline]
- -logIC50 [1]: 7.99
- Ki ([1]; FIG. 1, rat brain cortex membranes, read-out: Apparent Ki at 3H-prazosin binding sites): 3.44 nM
- affinity to alpha1-adrenoceptors (in words) ([1]; discussion of Table 1): excellent affinity; also recorded: apparent nanomolar potency
- decrease in binding sites, spleen membranes [7]: 18%
- preincubation time to maximum blockade ([2]; FIG. 6, 1×10^-8 M, preincubation 15 min to 3 hr): about 45 minutes
- Kd (KD) of remaining 3H-prazosin binding sites (in words) ([2]; after preincubation and washing): without a change in the affinity (KD) of the remaining sites; also recorded: Higher concentrations in the preincubation mixture increased the Kd of the remaining sites; also recorded: only decreased the concentration of ligand by 10- and 100-fold, respectively, at which the large Kd effects were noted; also recorded: the Kd of the remaining receptors increased when lower concentrations of added ligand were used in the diluted preincubation mixtures
- blockage of 3H-prazosin binding ([2]; brain membranes, 1 micromole of compound 47 in preincubation): approximately 50%
- maximum blockade of 3H-prazosin binding sites ([2]; brain membranes, altered protocols): no more than 50%
- reduction of 3H-prazosin binding ([2]; brain membranes, preincubated with 10 nM, washed): 50%
- maximum blockade after double preincubation ([2]; brain membranes, two preincubations with 10 nM, FIG. 7): ≤ 50%
- blockade of binding sites, heart membranes ([2]; heart membranes, preincubated, FIG. 3): 40-50%
- blockade of binding sites, kidney membranes ([2]; kidney membranes, preincubated, FIG. 3): 40-50%
- irreversible blockade / effect on 3H-prazosin binding sites (in words) [2]: irreversible; also recorded: decreased the number of alpha1 -adrenoceptors permanently
- irreversible blockade / effect on 3H-prazosin binding sites (in words) ([2]; listed as alkylated prazosin): Only approximately one half of the alpha1 -adrenoceptors could be eliminated in a clean manner
- blockade of 3H-prazosin binding sites under altered protocols (in words) ([2]; preincubation time, ligand/receptor ratio, buffer, (-)epinephrine, double preincubation): remained at this level even after three hours of preincubation; also recorded: No difference in blockade; also recorded: Increasing the preincubation time up to three hours did not increase the amount of blockade; also recorded: did not change the outcome of the results; also recorded: did not affect the amount of blockade; also recorded: did not lead to further blockade
- Ki ([8]; FIG. 1, rat brain cortex membranes, read-out: Apparent Ki at 3H-yohimbine binding sites): 884 nM
- affinity at 3H-yohimbine binding sites relative to 3H-prazosin binding sites ([8]; brain membranes): over a hundred times lower
- displacement of 3H-yohimbine (in words) ([8]; brain membranes): much weaker competitor
- Ki ([9]; FIG. 1, rat brain cortex membranes, read-out: Apparent Ki at 3H-DHA binding sites): 5910 nM
- displacement of 3H-DHA (in words) ([9]; brain membranes): much weaker competitor
- effect of preincubation on 3H-yohimbine binding (alpha2) [10]: did not irreversibly block ^3 -yohimbine binding sites; also recorded: unaffected
- effect of preincubation on 3H-yohimbine binding (alpha2) ([10]; listed as alkylated prazosin): did not introduce permanent change
- effect of preincubation on 3H-DHA binding (beta) [11]: unaffected
- effect of preincubation on 3H-DHA binding (beta) ([11]; listed as alkylated prazosin): did not introduce permanent change
- % Reduction in Bmax, brain ([12]; 10 mg/kg i.p., brain): 36%
- Kd ([12]; 10 mg/kg i.p., brain, control 0.317 ± 0.071, read-out: Kd, experimental, brain): 0.292 ± 0.045 nM
- % Reduction in Bmax, heart ([12]; 10 mg/kg i.p., heart): 43%
- Kd ([12]; 10 mg/kg i.p., heart, control 0.150 ± 0.019, read-out: Kd, experimental, heart): 0.255 ± 0.072 nM
- % Reduction in Bmax, kidney ([12]; 10 mg/kg i.p., kidney): 21%
- decrease in Bmax, brains and hearts ([12]; 10 mg/kg i.p., vs vehicle): 32-44%
- Kd of remaining receptors after i.p. injection (in words) ([12]; i.p.): a significant increase in the Kd of the remaining receptors was seen
- effect on blood pressure response to phenylephrine [3]: counteracted only to phenylephrine
- persistence of effect on norepinephrine contraction of aorta rings [13]: could not be cancelled by 21 hours of washing at 4 °C
- inhibition of catecholamine-activated calcium efflux [14]: potently inhibited the efflux of calcium ions
- effect on muscarinic-activated calcium efflux [15]: did not interfere in the efflux of calcium ions
